Experimental data reported in paper PMC8376128 (CPT: Pharmacometrics & Systems Pharmacology, 2021).
Where two headings read alike, the source gives them in different places.

How the values were obtained:
NSCLC tumors [1] = conditions: cited from earlier work
[2] = Human PK model for AMG 510 fitted to digitized published clinical PK data; type: in vivo; conditions: AMG 510 (human)
NSCLC tumors [3] = conditions: cited from earlier work; remark: listed apart in the source
[4] = patients with NSCLC, single agent

Compound	ORR reported (NSCLC tumors [1]; AMG 510 at 960 mg, patients with NSCLC)	overall response rate (ORR) (NSCLC tumors [1]; [4])	dose-limiting toxicities (NSCLC tumors [1]; patients, phase I)	Fz (data), frequency in tumor size bin 0–0.3 (NSCLC tumors [1]; six weeks AMG 510)	Fz (data), frequency in tumor size bin 0.3–0.5 (NSCLC tumors [1]; six weeks AMG 510)	Fz (data), frequency in tumor size bin 0.5–0.7 (NSCLC tumors [1]; six weeks AMG 510)	Fz (data), frequency in tumor size bin 0.7–1 (NSCLC tumors [1]; six weeks AMG 510)	Fz (data), frequency in tumor size bin 1–1.2 (NSCLC tumors [1]; six weeks AMG 510)	N (data), number of patients in tumor size bin 0–0.3 (NSCLC tumors [1]; six weeks AMG 510)	N (data), number of patients in tumor size bin 0.3–0.5 (NSCLC tumors [1]; six weeks AMG 510)	N (data), number of patients in tumor size bin 0.5–0.7 (NSCLC tumors [1]; six weeks AMG 510)	N (data), number of patients in tumor size bin 0.7–1 (NSCLC tumors [1]; six weeks AMG 510)	N (data), number of patients in tumor size bin 1–1.2 (NSCLC tumors [1]; six weeks AMG 510)	ke [2]	V1 ([2]; assume 70 kg human)	Vp ([2]; assume 70 kg human)	ka ([2]; single dose 960 mg)	overall response rate (ORR) (NSCLC tumors [3]; [4])	dose-limiting toxicities (NSCLC tumors [3]; patients, phase I)
C=CC(=O)N1CCN(c2nc(=O)n(-c3c(C)ccnc3C(C)C)c3nc(-c4c(O)cccc4F)c(F)cc23)[C@@H](C)C1 [AMG 510, Sotorasib]	50%	~ 50%	no dose‐limiting toxicities	0.091	0.136	0.272	0.272	0.227	2	3	6	6	5	2.98 day⁻¹	110 L	4.40 L	58.1 day⁻¹		
C=C(F)C(=O)N1CCN(c2nc(OC[C@@H]3CCCN3C)nc3c2CCN(c2cccc4cccc(Cl)c24)C3)C[C@@H]1CC#N [MRTX849, Adagrasib]																		~ 50%	no dose‐limiting toxicities
